From the NIST ThermoML archive (doi:10.1016/j.jct.2014.06.030)
Numbers after ± are expanded uncertainties.

Conditions: 101.33 kPa, Liquid; for speed of sound: Sing-around technique in a fixed-path interferometer; for mass density: Vibrating tube method

| SMILES | speed of sound (298.15 K) | mass density (298.15 K) | speed of sound (303.15 K) | mass density (303.15 K) | speed of sound (308.15 K) | mass density (308.15 K) |
| --- | --- | --- | --- | --- | --- | --- |
| C1CCCCC1 [cyclohexane] | 1253.6 ± 1.2 m/s | 773.94 ± 1 kg/m3 | 1229.1 ± 1.2 m/s | 769.21 ± 1 kg/m3 | 1205.1 ± 1.2 m/s | 764.45 ± 1 kg/m3 |
| CN(C)C=O [dimethylformamide] | 1458.5 ± 1.2 m/s | 944.6 ± 1 kg/m3 | 1440.2 ± 1.2 m/s | 939.83 ± 1 kg/m3 | 1420.8 ± 1.2 m/s | 935.05 ± 1 kg/m3 |
| Cc1ccccc1Cl [2-chlorotoluene] | 1298.7 ± 1.4 m/s | 1077.3 ± 1 kg/m3 | 1280.7 ± 1.4 m/s | 1072.5 ± 1 kg/m3 | 1262.7 ± 1.4 m/s | 1067.6 ± 1 kg/m3 |
| CNC=O [N-methylformamide] | 1431.6 ± 1.3 m/s | 999 ± 1 kg/m3 | 1417.4 ± 1.3 m/s | 994.65 ± 1 kg/m3 | 1402.2 ± 1.3 m/s | 990.3 ± 1 kg/m3 |
| C1CCOCC1 [tetrahydropyran] | 1269.8 ± 1.2 m/s | 879.13 ± 1 kg/m3 | 1246.8 ± 1.2 m/s | 873.99 ± 1 kg/m3 | 1224.4 ± 1.2 m/s | 868.83 ± 1 kg/m3 |
